Consider 1 compound from patent publication US20090061515A1, “Methods of inhibiting or suppressing cellular proliferation” (priority 2007, published 2009).

Assay [1] concerns coronary artery smooth muscle cells (CASMC). The experiment in a line: Cell proliferation and viability assays (CyQuant, CellTiter-Glo, CellTiter 96), CASMC (Example 5). The format is cell-based. The conditions noted are these: 48 hours. From the text:
Multiple assays were used to test a variety of cellular properties expressed after exposure of different cells types to 5,6-dihydroxy-hexan-2-one. A cell proliferation assay available under the trade designation CyQuant from Invitrogen Corporation (Carlsbad, Calif.) determines the density of cells in culture by using a green fluorescent dye which fluoresces when bound to cellular nucleic acids. The amount of nucleic acid present is proportional to the amount of living cells in culture. […]
The amount of ATP present is proportional to the measured amount of a luminescent signal and therefore the amount of viable cells. […] The absorbance read is proportional to the amount of metabolic activity present in the cells.
Normal human dermal fibroblast (NHDF) cells and coronary artery smooth muscle cells (CASMC) in culture were exposed to 5,6-dihydroxy-hexan-2-one at concentrations of 10 microgram/ml, 1 mg/ml, and 10 mg/ml, for 48 hours, after which the cell culture wells were analyzed for cell proliferation and viability. […] FIG. 17 is a graphical representation of fibroblast cell numbers measured after 48 hours exposure to different concentrations of 5,6-dihydroxy-hexan-2-one. FIG. 18 is a graphical representation of smooth muscle cell numbers measured after 48 hours exposure to different concentrations of 5,6-dihydroxy-hexan-2-one. […]
On the technique in general: Cellular ATP, detected with luciferase, serves as a proxy for viable cell number.

For assay [2] the test system is unchanged. The assay is described as follows: Cell migration into scraped monolayer, CASMC (Example 5). The format is cell-based. The conditions noted are these: 1 and 10 mg/ml, 48 hours exposure then 72 hours growth. As to the method: In a similar manner, cell migration was explored in vitro by scraping the cell monolayer and culturing the cells in the presence of 5,6-dihydroxy-hexan-2-one at concentrations of 1 mg/ml and 10 mg/ml. FIGS. 20(a)-(l) are pictures that visually display the migration of coronary artery smooth muscle cells (CASMC) (FIGS. 20(a)-(f)) and normal human dermal fibroblast (NHDF) cells (FIGS. 20(g)-(l)) exposed to various concentrations of 5,6-dihydroxy-hexan-2-one after 48 hours exposure, then cultured an additional 72 hours after removal of the 5,6-dihydroxy-hexan-2-one as described in Example 5. Specifically, FIGS. 20(a) and (b) represent the CASMC control at time zero and 72 hours, respectively; FIGS. 20(c) and (d) represent CASMC (10 mg/ml) at time zero and 72 hours, respectively; and FIGS. 20(e) and (f) represent CASMC (1 mg/ml) at time zero and 72 hours, respectively. FIGS. 20(g) and (h) represent the NHDF cell control at time zero and 72 hours, respectively; FIGS. 20(i) and (j) represent NHDF cells (10 mg/ml) at time zero and 72 hours, respectively; and FIGS. 20(k) and (l) represent NHDF cells (1 mg/ml) at time zero and 72 hours, respectively.
Cell migration judged by the ability of cells to repopulate the scraped “acellular” space over time indicated no microscopically identifiable effect by the agent at the concentrations tested. […]

Turning to `CC(=O)CCC(O)CO` (stereo not drawn) [5,6-dihydroxy-hexan-2-one], the cell proliferation result in assay [1] (10 mg/ml) is recorded as “inhibition of cell proliferation”; in assay [1] (other concentrations (10 microgram/ml, 1 mg/ml)), “did not show this effect”. Further, in assay [2], the cell migration result is “not affected”.
